Reference: patent publication US20120121574A1, “ANTIMICROBIAL, ANTIVIRAL, ANTICANCER AND IMMUNOMODULATORY PEPTIDES AND USES THEREFORE” (priority 2010, published 2012)
Where a SMILES comes first, the peptide text is derived from it. Where no end group is shown, it is not given here.

What was measured:
[1] = test system: C. albicans SC5314 strain; details: for EC50: SC5314, 6 h; for EC50asd/EC50N10K: Table IX
Method: In vitro activity of N10K against C. albicans SC5314 strain. The candidacidal activity of N10K peptide against C. albicans was assessed by a conventional colony forming unit (CFU) assay as previously described (Polonelli et al., 2003; Manfredi et al., 2005). Briefly, cells of C. albicans SC5314 were incubated at 37° C. for 6 hours (hr) in the presence of N10K at the concentration indicated of 20, 12.5 or 6.25 microgram/ml, or in distilled water as control (C). After incubation, cell suspensions were plated on Sabouraud dextrose agar and incubated at 30° C. for 48 hours when CFU were counted (** P<0.01 for N10K treated versus untreated cells, by t test). […]
The alanine-substituted derivatives (asd), defined according to the position held by the alanine-substituted aminoacid, were tested against C. albicans by a conventional colony forming unit (CFU) as previously described (Polonelli et al., 2003). Briefly, cells of C. albicans SC5314 were incubated at 37° C. for 6 hours in the presence of N10K or N10K asd at different scalar concentrations or distilled water as control. After incubation, cell suspensions were plated on Sabouraud dextrose agar and incubated at 30° C. for 48 hours when CFU were counted. Based on several independent replications, the EC50 value of each peptide was calculated by nonlinear regression analysis using Graph Pad Prism 4.01 software, San Diego, Calif., USA. […]
In vitro microbicidal activity of N10K derivative with 2 amino acid substitutions, or 80% sequence identity with native N10K, namely peptide Seq Id. No. 25 was tested against Candida albicans SC5314 as determined by Colony Forming Unit assay.

[2] = test system: C. albicans AIDS68 strain; assay: murine model of vaginal candidiasis, fluconazole-resistant strain; format: in vivo, mice; details: peptide 25 micrograms intravaginally 1, 24 and 48 hours after challenge
Method: (§1) In vivo activity of N10K against vaginal candidiasis caused in mice by the fluconazole-resistant C. albicans AIDS68 strain. The anticandidal therapeutic activity of N10K was evaluated in a murine model of vaginal candidiasis. Groups of 5 mice were injected subcutaneously with 0.02 mg of estradiol benzoate in 100 μl of saline solution, […] and weekly thereafter. Then, mice given intravaginally 10^6 cells of the fluconazole-resistant C. albicans strain AIDS68 in 20 μl of saline solution on day 0 and were sampled for intravaginal CFU. N10K, 25 micrograms, was intravaginally administered in comparison to an irrelevant peptide (SP) as control, 1, 24 and 48 hours after the infectious challenge and sampled for intravaginal CFU at days 1, 2, 5, 7, 14, 21, and 28. The statistical significance was assessed by two-tailed Student's t test. On days 1, 2, 5, 7, 14, and 21, the differences in the CFU vaginal counts between N10K treated, untreated, SP treated and fluconazole treated animals were statistically significant (P<0.05) (Table VI).
as §1, with “T11F” for “N10K”, “T11F,” for “N10K,”, “VIII).” for “VI).”

U937 cell line = assay: annexine-V/propidium iodide flow cytometry on U937; details: annexine-V/propidium iodide staining
[3] = test system: C. neoformans 6995 strain; details: 6995 strain, 6 h
[4] = test system: peritoneal murine macrophages (PM); assay: in vitro immunomodulatory activity on murine peritoneal macrophages (PM); format: cell-based, mouse; details: mouse peritoneal macrophages, FIG. 73
Method: In vitro immunomodulatory activity of MoA VHCDR3 on murine immune cells. FIGS. 47-51 are graphs showing TNF-α and IL-6 production by PM and PMN stimulated with MoA CDRs and mouse MoA VHCDR3 uptake by different cell populations. Cells were cultured in the presence or absence (NS) of human and/or mouse CDRs, lipopolisaccharide (LPS), or negative control peptide (NC) (all 10 micrograms/ml) for 18 hr. Both PM and PMN cell populations were 5×10^6/ml. After incubation, TNF-α and IL-6 levels were evaluated in culture supernatants by specific ELISA assays (* P<0.05 treated vs untreated cells, n=7). In FIG. 51, dendritic cells (DC), PM, PMN, and T cells (all 1×10^6/ml) were incubated for 1 hr in the presence or absence (NS) of biotinylated (b)-MoA VHCDR3 or b-NC (both 10 micrograms/ml). After incubation, permeabilized cells were reacted with FITC-labelled mAb to biotin (b) and analyzed by FACScan flow cytometry. Data are reported as the percentage of positive cells *, P<0.05 (b-VHCDR3 treated vs untreated cells, n=5). Error bars, s.e.m. FIGS. 52A and B show graphs and colored cell staining micrograph of kinetic of VHCDR3 uptake by PM. PM (1×10^6/ml) were incubated for different times with b-VHCDR3 or b-NC (all 10 micrograms/ml). After incubation, permeabilized cells were reacted with FITC-labelled mAb to biotin and analyzed by FACScan flow cytometry. Data are reported as the mean fluorescence intensity (MFI) and percentage of positive cells (FIG. 52A) (* P<0.05 b-VHCDR3-treated vs untreated cells, n=7). Error bars, s.e.m. In selected experiments, cells were incubated for 1 hr as above described, reacted with FITC-labelled mAb to biotin in the presence of Evans' Blue as a counter stain, and subsequently examined under fluorescent light microscopy (FIG. 52B). Note the green fluorescence of b-VHCDR3 treated cells. Original magnification 20×. In FIGS. 53 and 54 is shown the phospho-Akt activation and TNF-α production in PM stimulated with MoA VHCDR3. PM (3×10^6/ml) were stimulated for 1 hr in the presence or absence (NS) of MoA VHCDR3, LPS, an irrelevant control peptide (NC) or a scrambled peptide (SP) (all 10 micrograms/ml). After incubation, cell lysates were subjected to Western blotting. Membranes were incubated with Abs to pAkt and Akt; pAkt was normalized against Akt (FIG. 53)*, P<0.05 (treated vs untreated cells, n=5). […] PM (5×10^6/ml) were stimulated for 18 hr as above described. After incubation, TNF-α level was evaluated in culture supernatants by specific ELISA assays. (FIG. 54)*, P<0.05 (treated vs untreated cells, n=5). In FIGS. 55 and 56 is shown the phospho-IkBα activation and TNF-α gene expression in PM stimulated with MoA VHCDR3. PM (3×10^6/ml) were stimulated for 1 hr in the presence or absence (NS) of wortmannin (4 nM), MoA VHCDR3, LPS or NC (all 10 micrograms/ml). After incubation, cell lysates were subjected to Western blotting. Membranes were incubated with Abs to pIkBα and IkBα; pIkBα was normalized against IkBα. (FIG. 55)*, P<0.05 (treated versus untreated cells, n=5); †, P<0.05 (wortmannin-treated vs wortmannin-untreated cells, n=5). For testing the expression level of TNF-α gene, PM (1×10^6/ml) were cultured for 1, 6 and 18 hr as above described. After incubation, total RNA was isolated and analyzed for mRNA expression with RT-PCR (FIG. 56). Transcript copy numbers were determined by qPCR using cDNA as a template. Copy numbers were normalized against the copy number of the GADPH gene (B). […]

Compound | EC50 [1] [nM] | EC50asd/EC50N10K [1] | further results
NQVSATCSVK [L5A, L8S N10K, N Q V S A T C S V K] | 43200 |  | Activity ([1]; Table III, in vitro, Fungus): cidal
NQVSLACLVK [asd T6A N10K, N Q V S L A C L V K] | 4880 | 4.86 | 
NQVSLTALVK [asd C7A N10K, N Q V S L T A L V K] | 54900 | 54.71 | 
NQVALTCLVK [asd S4A N10K, N Q V A L T C L V K] | 2390 | 2.38 | 
OC(Cn1cncn1)(Cn1cncn1)c1ccc(F)cc1F [fluconazole] |  |  | CFU vaginal counts ([2]; Day 0): >100; CFU vaginal counts ([2]; Day 1): >100; CFU vaginal counts ([2]; Day 2): 93 ± 4.3; CFU vaginal counts ([2]; Day 5): 61 ± 2.5; CFU vaginal counts ([2]; Day 7): 44 ± 2.9; CFU vaginal counts ([2]; Day 14): 18.7 ± 3.8; CFU vaginal counts ([2]; Day 21): 11.7 ± 0.7; CFU vaginal counts ([2]; Day 28): 0
NQVSATCLVK [asd L5A N10K, N Q V S A T C L V K] | 885 | 0.88 | 
CC(C)C[C@H](NC(=O)[C@H](C)NC(=O)[C@H](CCC(=O)O)NC(=O)[C@@H](N)Cc1c[nH]cn1)C(=O)O [Peptide H4L, H E A L] (H-HEAL-OH) |  |  | induction of apoptotic/necrotic effects (U937 cell line): exclude the induction of apoptotic/necrotic effects
TCRVDHRGLTF [Peptide T11F, T C R V D H R G L T F] | 1600 |  | EC50 [3]: 2690 nM; induction of apoptotic/necrotic effects (U937 cell line): exclude the induction of apoptotic/necrotic effects
NQVSLTCLAK [asd V9A N10K, N Q V S L T C L A K] | 1780 | 1.77 | 
G Q Y G A L W F A Y (GQYGALWFAY) [Peptide A5] |  |  | TNF-α-inducing activity compared with VHCDR3 [4]: either unchanged or slightly reduced
NQVSLTCAVK [asd L8A N10K, N Q V S L T C A V K] | 744 | 0.74 | 
G Q A G N L W F A Y (GQAGNLWFAY) [Peptide A3] |  |  | TNF-α-inducing activity compared with VHCDR3 [4]: either unchanged or slightly reduced
N Q V S L T C L V A (NQVSLTCLVA) [asd K10A] |  |  | percentual inhibition of C. albicans growth ([1]; at the concentration of 250 micrograms/ml): * EC50 was not determined, asd K10A showed a percentual inhibition of C. albicans growth equal to 69.04 at the concentration of 250 micrograms/ml
AQVSLTCLVK [asd N1A N10K, A Q V S L T C L V K] | 587 | 0.58 | 
NQASLTCLVK [asd V3A N10K, N Q A S L T C L V K] | 5930 | 5.91 | 
